Measurements taken from ChEMBL document CHEMBL1148336, “3-Aminopyrazole inhibitors of CDK2/cyclin A as antitumor agents. 1. Lead finding” (J Med Chem, 2004).
pIC50: −log10 of the molar value.

Columns and labels:
[1] = molecular target: Cyclin-dependent kinase 2/cyclin A (Homo sapiens, UniProt P24941); test: In vitro inhibitory concentration against cyclin-dependent kinase 2-cyclin A complex using ATP/P33gamma-ATP mix as radioligand; format: protein-complex assay
A2780 = test: Antiproliferative activity against human A2780 cells; format: functional, cell-based

**Q.** `O=C(Nc1cc(C2CC2)[nH]n1)c1ccc(Br)cc1` was tested. Which pIC50 [1] did it give?
**A.** 7.47

**Q.** How did the pIC50 [1] turn out when `COc1ccccc1C(=O)Nc1cc(C2CC2)[nH]n1` was run?
**A.** < 5.00

**Q.** How did the pIC50 [1] turn out when `CCCc1cc(NC(=O)c2ccc(Br)cc2)n[nH]1` was run?
**A.** 6.19

**Q.** `O=C(Nc1cc(C2CC2)[nH]n1)c1cccc(C(F)(F)F)c1` was tested. Which pIC50 [1] did it give?
**A.** 6.30

**Q.** How did the pIC50 [1] turn out when `O=C(Nc1cc(C2CC2)[nH]n1)c1ccc(Cl)c(Cl)c1` was run?
**A.** 7.08

**Q.** With `NC(=O)c1ccc(CC(=O)Nc2cc(C3CC3)[nH]n2)cc1` as the compound, how does the pIC50 (A2780) read?
**A.** 5.55

**Q.** What about the pIC50 [1] of the same compound?
**A.** 7.13

**Q.** `Cc1cccc(-c2ccc(CC(=O)Nc3cc(C4CC4)[nH]n3)cc2)c1` was tested. Which pIC50 (A2780) did it give?
**A.** 6.69

**Q.** What about the pIC50 [1] of the same compound?
**A.** 8.05

**Q.** `O=C(Nc1cc(C2CCC2)[nH]n1)c1ccc(Br)cc1` was tested. Which pIC50 [1] did it give?
**A.** 7.05

**Q.** `O=C(Cc1ccc(OCCN2CCCC2)cc1)Nc1cc(C2CC2)[nH]n1` was tested. Which pIC50 (A2780) did it give?
**A.** 5.16

**Q.** How did the pIC50 (A2780) turn out when `COc1cccc(CC(=O)Nc2cc(C3CC3)[nH]n2)c1` was run?
**A.** < 4.70

**Q.** `CCCC(=O)Nc1cc(C)[nH]n1` was tested. Which pIC50 [1] did it give?
**A.** < 5.00

**Q.** `O=C(Nc1cc(C2CC2)[nH]n1)c1c(Cl)cccc1Cl` was tested. Which pIC50 [1] did it give?
**A.** < 5.00

**Q.** With `NC(=O)c1ccc(-c2ccc(CC(=O)Nc3cc(C4CC4)[nH]n3)cc2)cc1` as the compound, how does the pIC50 (A2780) read?
**A.** 5.83

**Q.** And the pIC50 [1]?
**A.** 8.40

**Q.** How did the pIC50 [1] turn out when `Cc1cc(NC(=O)c2ccccc2)n[nH]1` was run?
**A.** 5.82

**Q.** How did the pIC50 (A2780) turn out when `O=C(Cc1ccc(-c2ccccc2)cc1)Nc1cc(C2CC2)[nH]n1` was run?
**A.** 6.95

**Q.** With `O=C(Cc1ccc(-c2cccc(F)c2)cc1)Nc1cc(C2CC2)[nH]n1` as the compound, how does the pIC50 (A2780) read?
**A.** 6.74

**Q.** What about the pIC50 [1] of the same compound?
**A.** 8.40

**Q.** `COc1ccc(C(=O)Nc2cc(C3CC3)[nH]n2)cc1` was tested. Which pIC50 [1] did it give?
**A.** 6.15

**Q.** How did the pIC50 [1] turn out when `O=C(Nc1cc(C2CCCCC2)[nH]n1)c1ccc(Br)cc1` was run?
**A.** 6.00

**Q.** `COc1cccc(C(=O)Nc2cc(C3CC3)n[nH]2)c1` was tested. Which pIC50 [1] did it give?
**A.** 6.22

**Q.** How did the pIC50 [1] turn out when `O=C(Nc1cc(-c2ccccc2)[nH]n1)c1ccc(Br)cc1` was run?
**A.** < 5.00

**Q.** With `O=C(Nc1cc(Cc2ccccc2)[nH]n1)c1ccc(Br)cc1` as the compound, how does the pIC50 [1] read?
**A.** < 5.00

**Q.** `CC(C)(C)c1cc(NC(=O)c2ccc(Br)cc2)n[nH]1` was tested. Which pIC50 [1] did it give?
**A.** < 5.00

**Q.** How did the pIC50 (A2780) turn out when `O=C(Cc1ccc(-c2ccc(C(=O)O)cc2)cc1)Nc1cc(C2CC2)[nH]n1` was run?
**A.** < 4.70

**Q.** What about the pIC50 [1] of the same compound?
**A.** 7.96

**Q.** How did the pIC50 [1] turn out when `O=C(Nc1cc(C2CC2)[nH]n1)c1cccc(Cl)c1` was run?
**A.** 6.00

**Q.** What does the source list for `O=C(Cc1ccccc1)Nc1cc(C2CC2)[nH]n1`?
**A.** pIC50 (A2780): 5.85; pIC50 [1]: 7.32

**Q.** How did the pIC50 [1] turn out when `CCC(C)c1cc(NC(=O)c2ccc(Br)cc2)[nH]n1` (stereo not given) was run?
**A.** < 5.00

**Q.** How did the pIC50 [1] turn out when `CC(C)c1cc(NC(=O)c2ccc(Br)cc2)n[nH]1` was run?
**A.** 6.70

**Q.** With `O=C(Cc1cccc2ccccc12)Nc1cc(C2CC2)[nH]n1` as the compound, how does the pIC50 (A2780) read?
**A.** 6.05

**Q.** How did the pIC50 [1] turn out when `O=C(Nc1cc(C2CCCC2)[nH]n1)c1ccc(Br)cc1` was run?
**A.** 7.30
